The results in this text go back to patent US10385022B2, “3-amino-pyridines as GPBAR1 agonists” (HOFFMANN-LA ROCHE INC., priority 2011, dated 2019).

The target of the assay is human GPBAR1 receptor (Homo sapiens (Human), UniProt Q8TDU6). Description: functional cAMP assay in CHO-dhfr(minus) cells expressing human GPBAR1 receptors. The class given is cell-based. To be noted: CHO-dhfr(minus) cells expressing human GPBAR1, 30 min at 30° C. A digest of the protocol:
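CHO-dhfr- cells were transfected with human GPBAR1, and a clone was chosen by cAMP response to lithocholic acid. EC50 values come from the cAMP read-out; specificity was checked in non-transfected CHO cells.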

human GPBAR1 receptor, sequence (Q8TDU6 whole entry): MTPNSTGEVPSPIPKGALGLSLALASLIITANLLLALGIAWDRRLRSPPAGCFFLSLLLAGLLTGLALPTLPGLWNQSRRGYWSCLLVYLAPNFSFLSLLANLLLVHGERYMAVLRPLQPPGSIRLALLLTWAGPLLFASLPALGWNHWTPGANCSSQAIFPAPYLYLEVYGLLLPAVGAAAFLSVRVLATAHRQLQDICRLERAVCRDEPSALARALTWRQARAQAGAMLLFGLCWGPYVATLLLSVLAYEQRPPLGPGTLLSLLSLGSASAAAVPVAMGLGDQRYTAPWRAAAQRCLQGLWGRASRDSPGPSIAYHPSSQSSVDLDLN

The compound `Cc1cc(-c2cc(F)ccc2C)c(N(C)C(=O)c2cc(C(F)(F)F)cc(S(C)(=O)=O)c2)cn1` [Example 264, N-[4-(5-Fluoro-2-methyl-phenyl)-6-methyl-pyridin-3-yl]-3-methanesulfonyl-N-methyl-5-trifluoromethyl-benzamide] displayed an EC50 of 2410 nM.
`COc1cc(F)ccc1-c1ccncc1N(C)C(=O)c1cc(C(F)(F)F)cc(S(=O)(=O)CCN2CCC2)c1` [Example 265, 3-(2-Azetidin-1-yl-ethanesulfonyl)-N-[4-(4-fluoro-2-methoxy-phenyl)-pyridin-3-yl]-N-methyl-5-trifluoromethyl-benzamide] had a concentration for a half-maximal effect (EC50) of 121 nM.
The compound `CCOC(=O)CCc1cc(C(=O)N(C)c2cnccc2-c2ccc(F)cc2OC)cc(C(F)(F)F)c1` [Example 266, 3-(3-{[4-(4-Fluoro-2-methoxy-phenyl)-pyridin-3-yl]-methyl-carbamoyl}-5-trifluoromethyl-phenyl)-propionic acid ethyl ester] came in with a concentration giving a half-maximal response (EC50) of 177 nM.
Take `CN(C(=O)c1cc(C(F)(F)F)cc(S(C)(=O)=O)c1)c1cnccc1-c1ccc(F)cc1OCc1ccccc1` [Example 267, N-[4-(2-Benzyloxy-4-fluoro-phenyl)-pyridin-3-yl]-3-methanesulfonyl-N-methyl-5-trifluoromethyl-benzamide]: a half-maximal response (EC50) required 3460 nM.
In turn, `COc1cc(F)ccc1-c1ccncc1N(C)C(=O)c1cc(SC2CN(C(=O)OC(C)(C)C)C2)cc(C(F)(F)F)c1` [Example 268, 3-(3-{[4-(4-Fluoro-2-methoxy-phenyl)-pyridin-3-yl]-methyl-carbamoyl}-5-trifluoromethyl-phenylsulfanyl)-azetidine-1-carboxylic acid tert-butyl ester] yielded an EC50 of 768 nM. This EC50 is about 4.5-fold lower than that of the compound before.
Compound `COc1cc(F)ccc1-c1ccncc1N(C)C(=O)c1cc(C(F)(F)F)cc(S(=O)(=O)CCNS(N)(=O)=O)c1` [Example 269, N-[4-(4-fluoro-2-methoxyphenyl)pyridin-3-yl]-N-methyl-3-{[2-(sulfamoylamino)ethyl]-sulfonyl}-5-(trifluoromethyl)benzamide] yielded an EC50 of 94 nM.
In turn, `COc1cc(F)ccc1-c1ccncc1N(C)C(=O)c1cc(C(F)(F)F)cc(S(=O)(=O)CCNS(C)(=O)=O)c1` [Example 270, N-[4-(4-Fluoro-2-methoxy-phenyl)-pyridin-3-yl]-3-(2-methanesulfonylamino-ethanesulfonyl)-N-methyl-5-trifluoromethyl-benzamide] yielded a concentration for a half-maximal effect (EC50) of 133 nM.
As for `Cc1ccccc1-c1ccncc1N(C)C(=O)c1cc(NCCO)cc(C(F)(F)F)c1` [Example 271, 3-(2-Hydroxy-ethylamino)-N-methyl-N-(4-o-tolyl-pyridin-3-yl)-5-trifluoromethyl-benzamide], the response was half-maximal at 3130 nM (EC50).
As for `CN(C(=O)c1cc(C(F)(F)F)cc(S(C)(=O)=O)c1)c1cnccc1-c1ccccc1OC1COC1` [Example 272, 3-Methanesulfonyl-N-methyl-N-{4-[2-(oxetan-3-yloxy)-phenyl]-pyridin-3-yl}-5-trifluoromethyl-benzamide], the half-maximal effective concentration (EC50) stood at 64 nM. This EC50 is about 49-fold lower than that of the compound before.
On to `COc1cc(F)ccc1-c1ccncc1N(CC1CCOC1)C(=O)c1cc(C(F)(F)F)cc(S(C)(=O)=O)c1` (stereo not shown) [Example 273, N-[4-(4-Fluoro-2-methoxy-phenyl)-pyridin-3-yl]-3-methanesulfonyl-N-(tetrahydro-furan-3-ylmethyl)-5-trifluoromethyl-benzamide], for which the midpoint of the response, the EC50, lay at 1500 nM.
`CN(C(=O)c1cc(C(F)(F)F)cc(S(C)(=O)=O)c1)c1cnccc1-c1ccccc1OC(F)(F)F` [Example 274, 3-Methanesulfonyl-N-methyl-N-[4-(2-trifluoromethoxy-phenyl)-pyridin-3-yl]-5-trifluoromethyl-benzamide] displayed an EC50 of 34 nM.
For `COc1cc(F)ccc1-c1ccncc1N(C)C(=O)c1cc(SC2CNC2)cc(C(F)(F)F)c1` [Example 275, 3-(Azetidin-3-ylsulfanyl)-N-[4-(4-fluoro-2-methoxy-phenyl)-pyridin-3-yl]-N-methyl-5-trifluoromethyl-benzamide], the midpoint of the response, the EC50, lay at 1230 nM. This EC50 is about 36-fold higher than that of the compound before.
The compound `Cc1ccc(F)cc1-c1ccncc1N(C)C(=O)c1cc(C(F)(F)F)cc(S(C)(=O)=O)c1` [Example 276, N-[4-(5-Fluoro-2-methyl-phenyl)-pyridin-3-yl]-3-methanesulfonyl-N-methyl-5-trifluoromethyl-benzamide] returned an EC50 of 162 nM.
`CN(C(=O)c1cc(C(F)(F)F)cc(S(C)(=O)=O)c1)c1cnccc1-c1ccccc1OC1CCC1` [Example 277, N-[4-(2-Cyclobutoxy-phenyl)-pyridin-3-yl]-3-methanesulfonyl-N-methyl-5-trifluoromethyl-benzamide] came in with an EC50 of 8 nM.
Take `CN(C(=O)c1cc(C(F)(F)F)cc(S(C)(=O)=O)c1)c1cnccc1-c1ccccc1Cl` [Example 278, N-[4-(2-Chloro-phenyl)-pyridin-3-yl]-3-methanesulfonyl-N-methyl-5-trifluoromethyl-benzamide]: the response was half-maximal at 107 nM (EC50).
Under `CN(C(=O)c1cc(C(F)(F)F)cc(S(C)(=O)=O)c1)c1cnccc1-c1cccnc1OCC(F)(F)F` [Example 279, 3-Methanesulfonyl-N-methyl-N-[2-(2,2,2-trifluoro-ethoxy)-[3,4′]bipyridinyl-3′-yl]-5-trifluoromethyl-benzamide] stands 77 nM; under `COc1cc(F)ccc1-c1ccncc1N(C)C(=O)c1cc(C(F)(F)F)cc(S(=O)(=O)C2CNC2)c1` [Example 280, 3-(Azctidine-3-sulfonyl)-N-[4-(4-fluoro-2-methoxy-phenyl)-pyridin-3-yl]-N-methyl-5-trifluoromethyl-benzamide], 268 nM.
`COc1cc(F)ccc1-c1ccncc1N(C)C(=O)c1cc(CCC(N)=O)cc(C(F)(F)F)c1` [Example 281, 3-(2-Carbamoyl-ethyl)-N-[4-(4-fluoro-2-methoxy-phenyl)-pyridin-3-yl]-N-methyl-5-trifluoromethyl-benzamide] had an EC50 of 574 nM.
`COc1cc(F)ccc1-c1ccncc1N(C)C(=O)c1cc(C(F)(F)F)cc(S(=O)(=O)C2CN(S(C)(=O)=O)C2)c1` [Example 282, N-[4-(4-Fluoro-2-methoxy-phenyl)-pyridin-3-yl]-3-(1-methanesulfonyl-azetidine-3-sulfonyl)-N-methyl-5-trifluoromethyl-benzamide] had an EC50 of 69 nM.
As for `COc1cc(F)ccc1-c1ccncc1N(Cc1ncc(C)o1)C(=O)c1cc(C(F)(F)F)cc(S(C)(=O)=O)c1` [Example 283, N-[4-(4-Fluoro-2-methoxy-phenyl)-pyridin-3-yl]-3-methanesulfonyl-N-(5-methyl-oxazol-2-ylmethyl)-5-trifluoromethyl-benzamide], the concentration giving a half-maximal response (EC50) is 2200 nM.
For `COc1cc(-c2ccncc2N(C)C(=O)c2cc(C(F)(F)F)cc(S(C)(=O)=O)c2)c(F)cc1F` [Example 284, N-[4-(2,4-Difluoro-5-methoxy-phenyl)-pyridin-3-yl]-3-methanesulfonyl-N-methyl-5-trifluoromethyl-benzamide], the concentration for a half-maximal effect (EC50) came out at 353 nM.
As for `COc1ccc(F)c(-c2ccncc2N(C)C(=O)c2cc(C(F)(F)F)cc(S(C)(=O)=O)c2)c1F` [Example 285, N-[4-(2,6-Difluoro-3-methoxy-phenyl)-pyridin-3-yl]-3-methanesulfonyl-N-methyl-5-trifluoromethyl-benzamide], the 50% effective concentration (EC50) came out at 2900 nM.
As for `CS(=O)(=O)c1cc(C(=O)N(CC#N)c2cnccc2-c2ccccc2Cl)cc(C(F)(F)F)c1` [Example 286, N-[4-(2-Chloro-phenyl)-pyridin-3-yl]-N-cyanomethyl-3-methanesulfonyl-5-trifluoromethyl-benzamide], it took 379 nM to reach a half-maximal effect (EC50).
Under `CS(=O)(=O)c1cc(C(=O)N(CC(F)(F)F)c2cnccc2-c2ccccc2Cl)cc(C(F)(F)F)c1` [Example 287, N-[4-(2-Chloro-phenyl)-pyridin-3-yl]-3-methanesulfonyl-N-(2,2,2-trifluoro-ethyl)-5-trifluoromethyl-benzamide] stands 539 nM.
In the case of `CS(=O)(=O)CCN(C(=O)c1cc(C(F)(F)F)cc(S(C)(=O)=O)c1)c1cnccc1-c1ccccc1Cl` [Example 288, N-[4-(2-Chloro-phenyl)-pyridin-3-yl]-3-methanesulfonyl-N-(2-methanesulfonyl-ethyl)-5-trifluoromethyl-benzamide], it took 1480 nM to reach a half-maximal effect (EC50).
The result for `COC(=O)CN(C(=O)c1cc(C(F)(F)F)cc(S(C)(=O)=O)c1)c1cnccc1-c1ccccc1Cl` [Example 289, [[4-(2-Chloro-phenyl)-pyridin-3-yl]-(3-methanesulfonyl-5-trifluoromethyl-benzoyl)-amino]-acetic acid methyl ester] reads 275 nM; that for `COc1cc(F)ccc1-c1ccncc1N(C)C(=O)c1cc(C(F)(F)F)cc(S(=O)(=O)C2CN(S(N)(=O)=O)C2)c1` [Example 292, N-[4-(4-Fluoro-2-methoxy-phenyl)-pyridin-3-yl]-N-methyl-3-(1-sulfamoyl-azetidine-3-sulfonyl)-5-trifluoromethyl-benzamide], 88 nM; that for `COc1cc(F)ccc1-c1ccncc1N(Cc1nc(C)co1)C(=O)c1cc(C(F)(F)F)cc(S(C)(=O)=O)c1` [Example 293, N-[4-(4-Fluoro-2-methoxy-phenyl)-pyridin-3-yl]-3-methanesulfonyl-N-(4-methyl-oxazol-2-ylmethyl)-5-trifiuoromethyl-benzamide], 2460 nM.
As for `CS(=O)(=O)c1cc(C(=O)N(Cc2ncco2)c2cnccc2-c2ccccc2Cl)cc(C(F)(F)F)c1` [Example 294, N-[4-(2-Chloro-phenyl)-pyridin-3-yl]-3-methanesulfonyl-N-oxazol-2-ylmethyl-5-trifluoromethyl-benzamide], the EC50 was determined as 42 nM. Compared with the last compound, the EC50 is about 59-fold lower.
Regarding `Cc1c(F)cccc1-c1ccncc1N(C)C(=O)c1cc(C(F)(F)F)cc(S(C)(=O)=O)c1` [Example 295, N-[4-(3-Fluoro-2-methyl-phenyl)-pyridin-3-yl]-3-methanesulfonyl-N-methyl-5-trifluoromethyl-benzamide], the concentration giving a half-maximal response (EC50) stood at 445 nM. This EC50 lies about 11-fold higher than the previous one.
As to `CS(=O)(=O)c1cc(C(=O)N(CC(N)=O)c2cnccc2-c2ccccc2Cl)cc(C(F)(F)F)c1` [Example 296, N-Carbamoylmethyl-N-[4-(2-chloro-phenyl)-pyridin-3-yl]-3-methanesulfonyl-5-trifluoromethyl-benzamide], the EC50 is 1340 nM.

One may read the EC50 as the midpoint of the concentration-response curve. A lower EC50 goes with greater potency.
